Laboratory results taken from patent US7601736B2, “Pyridine derivatives, a process for their preparation and a pharmaceutical composition containing the same” (SK Chemicals Co., Ltd., priority 2003, dated 2009).

Legend:
TNF-α [1] = assay: Cytokine inhibitory activity in human whole blood (LPS), TNF-α ELISA; type: cell-based; settings: LPS 1 μg/mL, read-out: TNF-α Inhibition rate (conc.); for inhibition at 0.1 µg/mL: test conc. 100 ng/mL
Experimental: (§1) 20 mL of venous whole blood collected respectively from 5 healthy volunteers of men or women, who had never been medicated with anti-inflammatory drugs within the last two weeks, and was added with heparin. 1 mL each of the above blood was respectively collected, and transferred into test tubes in which it was mixed with test material. The above mixture was precultured at 37° C. for about 1 hour. Then it was added with 1 μg/mL of LPS (lipopolysaccharide), allowed to react at the same temperature for about 4 to about 12 hours and then centrifuged at 4° C. at the rate of 3000 rpm for about 10 minutes. Thus produced plasma was respectively collected and its TNF-α in each plasma was quantitated using human TNF-α ELISA kit based on the amount of recombinant TNF-α in humans. The plate used was coated with anti-human TNF-α monoclone IgG antibodies. Likewise, for the test of IL-1α, IL-1α in each plasma was quantitated using the above plasma and human IL-1α ELISA kit based on the amount of recombinant IL-1α in humans. The plate used was coated with anti-human IL-1α monoclone IgG antibodies. Further, for the test of PGE2, PGE2 in each plasma was quantitated using the above plasma and PGE2 ELISA kit based on the amount of recombinant PGE2 in humans. The plate used was coated with anti-human PGE2 monoclone IgG antibodies. From the above tests, inhibitory rates on the expression of each cytokine were obtained and they were compared to that of Indomethacin.

IL-1α [2] = assay: Cytokine inhibitory activity in human whole blood (LPS), IL-1α ELISA; type: cell-based; settings: LPS 1 μg/mL, read-out: IL-1α Inhibition rate (conc.); for inhibition at 0.1 µg/mL: test conc. 100 ng/mL
Experimental: as §1

PGE2 = assay: Cytokine inhibitory activity in human whole blood (LPS), PGE2 ELISA; type: cell-based; settings: LPS 1 μg/mL, read-out: PGE2 Inhibition rate (conc.); for inhibition at 300 µg/mL: test conc. 300 μg/mL
Experimental: as §1

TNF-α [3] = assay: Cytokine inhibitory activity in animal model (LPS-treated SD rats), plasma TNF-α; type: in vivo, Sprague Dawley (SD) rats; settings: Rattus norvegicus, 2 h; SD rats, oral, LPS; 40 mg/kg; read-out: TNF-α Inhibition Rate (Conc.)
Experimental: (§2) Sprague Dawley (SD) rats with body weights of about 180 to about 200 g were fasted (free drinking) and then tested. Test compounds were administered orally at 40 mg/kg and then abdominally administered with LPS 1 μg/mL after 1 hour. After 2 hours, the rats were sacrificed and bloods were collected from abdominal vein, stored at room temperature for about 2 hours, and then centrifuged at 12,000 rpm for about 2 minutes. Thus produced plasma was respectively collected and its TNF-α in each plasma was quantitated using mouse TNF-α ELISA kit based on the amount of recombinant TNF-α in rats. The plate used was coated with anti-rat TNF-α monoclone IgG antibodies. Likewise, for the test of IL-1α, IL-1α in each plasma was quantitated using the above plasma and mouse IL-1α ELISA kit based on the amount of recombinant IL-1α in rats. The plate used was coated with anti-rat IL-1α monoclone IgG antibodies. Further, for the test of IL-6, IL-6 in each plasma was quantitated using the above plasma and mouse IL-6 ELISA kit based on the amount of recombinant IL-6 in rats. Further, for the test of INF-γ, INF-γ in each plasma was quantitated using the above plasma and mouse INF-γ ELISA kit based on the amount of recombinant INF-γ in rats. The plate used was coated with anti-rat INF-γ monoclone IgG antibodies. From the above tests, inhibitory rates on the expression of each cytokine were obtained and they were compared to that of Indomethacin.

IL-1α [4] = assay: Cytokine inhibitory activity in animal model (LPS-treated SD rats), plasma IL-1α; type: in vivo, Sprague Dawley (SD) rats; settings: oral
Experimental: as §2, with “Test compounds were administered orally at 40 mg/kg and then abdominally administered with LPS 1 μg/mL after 1 hour.” left out

IL-6 = assay: Cytokine inhibitory activity in animal model (LPS-treated SD rats), plasma IL-6; type: in vivo, Sprague Dawley (SD) rats; settings: oral
Experimental: as §2, with “Test compounds were administered orally at 40 mg/kg and then abdominally administered with LPS 1 μg/mL after 1 hour.” left out

INF-γ = assay: Cytokine inhibitory activity in animal model (LPS-treated SD rats), plasma INF-γ; type: in vivo, Sprague Dawley (SD) rats; settings: oral
Experimental: as §2, with “Test compounds were administered orally at 40 mg/kg and then abdominally administered with LPS 1 μg/mL after 1 hour.” left out

TNF-α [5] = assay: Cytokine inhibitory activity in cells: LPS-induced TNF-α in RAW 264.7; type: cell-based, murine; settings: Mus musculus, RAW264.7, RAW 264.7, LPS 1 μg/mL, read-out: TNF-α Inhibition Rate (%); for inhibition at 1 µM: test conc. 1 μM; for inhibition at 10 µM: test conc. 10 μM; for inhibition at 100 µM: test conc. 100 μM; for inhibition at 1000 µM: test conc. 1 mM
Experimental: General reagents used were purchased from Sigma-Aldrich chem. Co. and cytokine inhibitory activities were tested as follows. Mediums and reagents used in cell culture were purchased from GIBCO BRL (USA), and mouse TNF-α ELISA kit was purchased from R&D system (USA). The apparatus used ELISA reader (Spectra max-Plus 384, Molecular Device, USA).
Murine macrophage cell line RAW 264.7 was kindly provided by Korean Tissue Culture Center (KTCC). The cell line was cultured in DMEM medium containing 10% FBS, in a cell culturing device at the condition of 37° C., 5% CO2. First, murine RAW 264.7 was cultured in DMEM medium containing 10% FBS for about 24 hours, and cells were planted 200 μL each in 96 well plates at the concentration of 5×10^5/mL and cultured for about 24 hours. Then, test compounds were treated at various concentrations and then reacted at 37° C. for about 1 hour, wherein 1 μg/mL of lipopolysaccharide (LPS) was added thereto and reacted at 37° C. for about 12 hours. The supernatant was recovered and the amount of murine TNF-α on the medium was quantitated using ELISA kit. Thalidomide was respectively used as a positive and a negative control to compare the activities and the results are shown in the following tables 4a -4c.

[6] = test system: ICR (Institute of Cancer Research) mouse; assay: Croton oil-induced ear edema test; type: in vivo; settings: oral
Experimental: (§3) Male ICR (Institute of Cancer Research) mouse with body weight of about 20 to 30 g were tested wherein each group had 6 mouses. After 1 hour of the oral administration of a test compound, Croton oil (in acetone solution) was coated on one of the ears. After 4 hours, the thickness of the swollen ear in treated group was compared with the other unswollen ear and obtained the average increase rate in thickness of ear by the treatment.

[7] = test system: ICR (Institute of Cancer Research) mouse; assay: Arachidonic acid-induced ear edema test; type: in vivo; settings: oral
Experimental: as §3, with “Arachidonic acid” for “Croton oil”, “1 hour,” for “4 hours,”

[8] = test system: ICR (Institute of Cancer Research) mouse; assay: Analgesic test (acetic acid-induced stretchings); type: in vivo; settings: oral
Experimental: Male ICR (Institute of Cancer Research) mouse with body weight of about 20 to 30 g were tested wherein each group had 6 mouses. After 1 hour of the oral administration of a test compound, acetic acid (in distilled water) was abdominally administered. For the duration of 10 minutes, the animals were observed regarding the number of stretchings and the number was compared with that of placebo treated group and the result is shown in the following table 7.

TNF-α [9] = assay: Cytokine inhibitory activity in animal model (LPS-treated SD rats), plasma TNF-α; type: in vivo, Sprague Dawley (SD) rats; settings: Rattus norvegicus, 2 h, oral, read-out: TNF-α Inhibition Rate (Conc.)

SMILES | inhibition at 0.1 µg/mL (TNF-α [1]) [%] | inhibition at 0.1 µg/mL (IL-1α [2]) [%] | inhibition at 300 µg/mL (PGE2) [%] | inhibition in vivo at 40 mg/kg (TNF-α [3]) [%] | IL-α Inhibition rate (conc.) (IL-1α [4]; 40 mg/kg) | IL-6 Inhibition rate (conc.) (IL-6; 40 mg/kg) | INF-γ Inhibition rate (conc.) (INF-γ; 40 mg/kg) | inhibition at 1 µM (TNF-α [5]) [%] | inhibition at 10 µM (TNF-α [5]) [%] | inhibition at 100 µM (TNF-α [5]) [%] | inhibition at 1000 µM (TNF-α [5]) [%] | Inhibition Rate (%) ([6]; 2 mg/kg) | Inhibition Rate (%) ([6]; 10 mg/kg) | Inhibition Rate (%) ([6]; 50 mg/kg) | Inhibition Rate (%) ([7]; 2 mg/kg) | Inhibition Rate (%) ([7]; 10 mg/kg) | Inhibition Rate (%) ([7]; 50 mg/kg) | Inhibition Rate (%) ([8]; 10 mg/kg) | Inhibition Rate (%) ([8]; 50 mg/kg) | other results
O=C1OCCc2ccncc21 [Ex. 3, 3,4-dihydro-pyrano[3,4-c]pyridine-1-on] | 90 | 95 | 24 | 75 | 65% (40 mg/kg) | 71% (40 mg/kg) | 48% (40 mg/kg) | 34 | 35 | 43 | 44 | 33 | 56 | 57 | 33 | 51 | 46 | 76 | 92 | 
COc1ccc2c(c1)c(CC(=O)O)c(C)n2C(=O)c1ccc(Cl)cc1 [Indomethacin, reference compound] |  |  |  |  |  |  |  |  |  |  |  |  |  |  |  |  |  |  |  | inhibition at 200 µg/mL (TNF-α [1]; test conc. 200 μg/mL): 37%; inhibition at 200 µg/mL (IL-1α [2]; test conc. 200 μg/mL): 25%; inhibition at 200 µg/mL (PGE2; test conc. 200 μg/mL): 37%; IL-α Inhibition rate (conc.) (IL-1α [4]; 200 mg/kg): 24% (200 mg/kg); IL-6 Inhibition rate (conc.) (IL-6; 200 mg/kg): 60% (200 mg/kg); INF-γ Inhibition rate (conc.) (INF-γ; 200 mg/kg): 13% (200 mg/kg); inhibition in vivo at 200 mg/kg (TNF-α [9]): 46%
C=Cc1cncc2c1CCOC2=O [Ex. 9, 5-vinyl-3,4-dihydro-pyrano[3,4-c]pyridine-1-on] | 82 | 93 | 38 | 59 | 62% (40 mg/kg) | 43% (40 mg/kg) | 45% (40 mg/kg) | 37 | 38 | 39 | 41 | 25 | 44 | 37 | 21 | 29 | 39 | 73 | 76 | 
Cc1cc2c(cn1)C(=O)OCC2 [Ex. 6, 6-methyl-3,4-dihydro-pyrano[3,4-c]pyridine-1-on] | 84 | 90 | 23 | 39 | 52% (40 mg/kg) | 78% (40 mg/kg) | 51% (40 mg/kg) | 30 | 35 | 36 | 38 | 17 | 39 | 69 | 21 | 36 | 41 | 76 | 75 | 
